Species on record: Rattus norvegicus
Assay: Open TG-GATES - Regimen: Single
Assay type: toxicity, organism-based, Sprague-Dawley
Parameters: regimen Single, gender Male, age 6 weeks
Details: in vivo, po, 15 mg/kg, route gavage, dose level Low; for APTT / Bas / Eos / Fbg / Hb / Ht / Lym / MCH / MCHC / MCV / Mono / Neu / PT / Plat / RBC / Ret / WBC: tissue Blood; for KIDNEY_L / KIDNEY_R / KIDNEY_TOTAL: tissue Kidney; for LIVER: tissue Liver; for A/G / ALP / ALT / AST / BUN / CRE / Ca / Cl / DBIL / GLC / IP / K / LDH / Na / PL / RALB / TBIL / TC / TG / TP / gamma-GTP: tissue Plasma

In the case of `CN(C)CCC=C1c2ccccc2CCc2ccccc21` [AMITRIPTYLINE], the TERMINAL_BW (3 h) is reported as 194.5 g, the APTT (3 h) is reported as 16.2 s and the Bas (3 h) is reported as 0%. The Eos (3 h) was 1%, the Fbg (3 h) was 267.4 mg/dL and the Hb (3 h) was 12.8 g/dL. The Ht (3 h) was 39.3%, the Lym (3 h) was 73% and the MCH (3 h) was 21.2 pg. For the same compound, the MCHC (3 h) was 32.6%, the MCV (3 h) was 65 fL and the Mono (3 h) was 3%. The Neu (3 h) was 22.2%, the PT (3 h) was 16.2 s and the Plat (3 h) was 114.1 x10_4/uL. For the same compound, the RBC (3 h) was 604.8 x10_4/ul, the Ret (3 h) was 8.7% and the WBC (3 h) was 91.4 x10_2/uL. The KIDNEY_L (3 h) was 0.8 g, the KIDNEY_R (3 h) was 0.8 g and the KIDNEY_TOTAL (3 h) was 1.6 g. The LIVER (3 h) was 8.5 g, the A/G (3 h) was 0.8 and the ALP (3 h) was 1536.8 IU/L. It also gave an ALT (3 h) of 54.2 IU/L, an AST (3 h) of 74.4 IU/L and a BUN (3 h) of 10 mg/dL. For the same compound, the CRE (3 h) was 0.2 mg/dL, the Ca (3 h) was 11.1 mg/dL and the Cl (3 h) was 106.2 meq/L. For the same compound, the DBIL (3 h) was 0.01 mg/dL, the GLC (3 h) was 181.6 mg/dL and the IP (3 h) was 8.8 mg/dL. It also gave a K (3 h) of 4.3 meq/L, an LDH (3 h) of 83.8 IU/L and a Na (3 h) of 143 meq/L. It also gave a PL (3 h) of 142 mg/dL, an RALB (3 h) of 2.5 g/dL and a TBIL (3 h) of 0.058 mg/dL. For the same compound, the TC (3 h) was 80.2 mg/dL, the TG (3 h) was 52 mg/dL and the TP (3 h) was 5.4 g/dL. It also gave a gamma-GTP (3 h) of 1 IU/L, a TERMINAL_BW (6 h) of 191.5 g and an APTT (6 h) of 16 s. For the same compound, the Bas (6 h) was 0%, the Eos (6 h) was 1% and the Fbg (6 h) was 277.4 mg/dL. For the same compound, the Hb (6 h) was 13 g/dL, the Ht (6 h) was 39.9% and the Lym (6 h) was 77.4%. It also gave an MCH (6 h) of 21.1 pg, an MCHC (6 h) of 32.6% and an MCV (6 h) of 64.6 fL. The Mono (6 h) was 2.6%, the Neu (6 h) was 18.4% and the PT (6 h) was 15.9 s. For the same compound, the Plat (6 h) was 120 x10_4/uL, the RBC (6 h) was 617.8 x10_4/ul and the Ret (6 h) was 9.4%. For the same compound, the WBC (6 h) was 75 x10_2/uL, the KIDNEY_L (6 h) was 0.8 g and the KIDNEY_R (6 h) was 0.8 g. For the same compound, the KIDNEY_TOTAL (6 h) was 1.6 g, the LIVER (6 h) was 7.8 g and the A/G (6 h) was 0.8. The ALP (6 h) was 1444.2 IU/L, the ALT (6 h) was 46.4 IU/L and the AST (6 h) was 77.6 IU/L. For the same compound, the BUN (6 h) was 8.8 mg/dL, the CRE (6 h) was 0.2 mg/dL and the Ca (6 h) was 10.6 mg/dL. For the same compound, the Cl (6 h) was 106.6 meq/L, the DBIL (6 h) was 0.014 mg/dL and the GLC (6 h) was 175.8 mg/dL. The IP (6 h) was 9.2 mg/dL, the K (6 h) was 4.2 meq/L and the LDH (6 h) was 58.4 IU/L. It also gave a Na (6 h) of 143 meq/L, a PL (6 h) of 144.4 mg/dL and an RALB (6 h) of 2.4 g/dL. The TBIL (6 h) was 0.07 mg/dL, the TC (6 h) was 84.4 mg/dL and the TG (6 h) was 43.8 mg/dL. The TP (6 h) was 5.3 g/dL, the gamma-GTP (6 h) was 1 IU/L and the TERMINAL_BW (9 h) was 192 g. It also gave an APTT (9 h) of 16.6 s, a Bas (9 h) of 0% and an Eos (9 h) of 0.8%. The Fbg (9 h) was 262.6 mg/dL, the Hb (9 h) was 12.8 g/dL and the Ht (9 h) was 39.3%. For the same compound, the Lym (9 h) was 67.4%, the MCH (9 h) was 21.5 pg and the MCHC (9 h) was 32.6%. The MCV (9 h) was 65.8 fL, the Mono (9 h) was 2.4% and the Neu (9 h) was 29%. For the same compound, the PT (9 h) was 15.7 s, the Plat (9 h) was 117.7 x10_4/uL and the RBC (9 h) was 597 x10_4/ul. It also gave a Ret (9 h) of 9.3%, a WBC (9 h) of 87.8 x10_2/uL and a KIDNEY_L (9 h) of 0.9 g. For the same compound, the KIDNEY_R (9 h) was 0.9 g, the KIDNEY_TOTAL (9 h) was 1.7 g and the LIVER (9 h) was 7.4 g. For the same compound, the A/G (9 h) was 0.9, the ALP (9 h) was 1309.6 IU/L and the ALT (9 h) was 44.6 IU/L. The AST (9 h) was 71.2 IU/L, the BUN (9 h) was 8.4 mg/dL and the CRE (9 h) was 0.2 mg/dL. It also gave a Ca (9 h) of 10.7 mg/dL, a Cl (9 h) of 106.6 meq/L and a DBIL (9 h) of 0.006 mg/dL. It also gave a GLC (9 h) of 165.2 mg/dL, an IP (9 h) of 10.4 mg/dL and a K (9 h) of 3.9 meq/L. It also gave an LDH (9 h) of 69.2 IU/L, a Na (9 h) of 142.8 meq/L and a PL (9 h) of 140.4 mg/dL. For the same compound, the RALB (9 h) was 2.5 g/dL, the TBIL (9 h) was 0.062 mg/dL and the TC (9 h) was 78.6 mg/dL. It also gave a TG (9 h) of 33.2 mg/dL, a TP (9 h) of 5.4 g/dL and a gamma-GTP (9 h) of 1 IU/L. It also gave a TERMINAL_BW (24 h) of 206.4 g, an APTT (24 h) of 16 s and a Bas (24 h) of 0%. For the same compound, the Eos (24 h) was 1%, the Fbg (24 h) was 259.2 mg/dL and the Hb (24 h) was 12.8 g/dL. It also gave a Ht (24 h) of 38.8%, a Lym (24 h) of 77.8% and an MCH (24 h) of 21.6 pg. The MCHC (24 h) was 32.9%, the MCV (24 h) was 65.5 fL and the Mono (24 h) was 3%. The Neu (24 h) was 17.4%, the PT (24 h) was 16.4 s and the Plat (24 h) was 112.7 x10_4/uL. For the same compound, the RBC (24 h) was 592.4 x10_4/ul, the Ret (24 h) was 8.1% and the WBC (24 h) was 89.3 x10_2/uL. It also gave a KIDNEY_L (24 h) of 0.9 g, a KIDNEY_R (24 h) of 0.9 g and a KIDNEY_TOTAL (24 h) of 1.8 g. It also gave an LIVER (24 h) of 9.4 g, an A/G (24 h) of 0.8 and an ALP (24 h) of 1812.6 IU/L. For the same compound, the ALT (24 h) was 52.4 IU/L, the AST (24 h) was 78.6 IU/L and the BUN (24 h) was 14 mg/dL. It also gave a CRE (24 h) of 0.2 mg/dL, a Ca (24 h) of 10.9 mg/dL and a Cl (24 h) of 107 meq/L. It also gave a DBIL (24 h) of 0.018 mg/dL, a GLC (24 h) of 179.2 mg/dL and an IP (24 h) of 7.3 mg/dL. It also gave a K (24 h) of 4.2 meq/L, an LDH (24 h) of 74.2 IU/L and a Na (24 h) of 143 meq/L. The PL (24 h) was 146.8 mg/dL, the RALB (24 h) was 2.6 g/dL and the TBIL (24 h) was 0.056 mg/dL. It also gave a TC (24 h) of 77.2 mg/dL, a TG (24 h) of 82.2 mg/dL and a TP (24 h) of 5.6 g/dL. The gamma-GTP (24 h) was 1 IU/L.
